The values that follow come from patent US20210380548A1, “Fused [1,2,4]Thiadiazine Derivatives Which Act as KAT Inhibitors of the MYST Family” (CTxT Pty Limited, priority 2017, published 2021).

Bounds are passed on as bounds.

Usually IC50 stands for the concentration needed to halve the response being measured.

Assay [1] relates to histone H3K14 acetylation (HBO1 mediated) in U2OS cells. As to the kind of experiment: Histone H3 Lysine 14 Acetylation Biomarker Assay (96 well, U2OS). The class given is cell-based. Particulars: Table 6, H3K14ac, 24 hours incubation, serum free medium. How it is done: Compounds may be tested for their ability to inhibit acetylation of the histone H3K14 marker (which is HBO1 mediated) in the following assay:
(§1) The cell line U2OS was seeded at a density of 12,000 cells per well in 96 well optical quality tissue culture plates in RPMI medium and 10% foetal bovine serum, and allowed to adhere for 24 hours under standard culture conditions (37 degree Celsius, 5% CO2). At the end of this period the cells were washed with serum free medium. Compound dilutions prepared in DMSO were added to the serum free medium, with negative control wells reserved for treatment with DMSO only and positive controls receiving a potent inhibitor compound (e.g. Example 36 in WO2016/198507) at 10 μM concentration. After incubation for 24 hours, the cells were fixed with 3.7% formaldehyde in PBS for 20 minutes at room temperature, washed with phosphate buffer saline containing 0.1% Tween 20 and blocked with Odyssey blocking buffer (LI-COR, Lincoln, Nebr.) containing 0.1% TritonX100. Anti-H3K14ac specific antibody (Cell Signalling Technologies) in Odyssey blocking buffer containing 0.1% Tween 20 was added and incubated for 14 hours at 4 degree Celsius. After washing, a secondary antibody labelled with Alexa647 dye (LifeTechnologies) and Hoechst 33342 (1 μg/mL, SigmaAldrich) were added for 1 hour incubation. Plates were washed and read on a PerkinElmer Phenix high content imaging platform. Using a Columbus image analysis pipeline, individual nuclei were located by Hoechst 33342 stain and the acetylation level was calculated from the Alexa647-related intensity in the same area. The resulting mean intensity per cell was directly converted to percent inhibition relative to controls on the same plate and the data fitted against a four-parameter logistic model to determine the 50% inhibitory concentration (IC50).

Assay [2] addresses T1, TIP60-KAT5 (Homo sapiens, UniProt Q92993).
T1 construct: encoding amino acid residues 2 to 461 (Uniprot Q92993-2) of human KAT5 isoform; made in house; host or cells: E. coli BL21 DE3
Put plainly: Acetyltransferase biochemical assay (AlphaScreen), KAT5. The following applies: Table 1 (TIP60-KAT5); 0.4 μM Acetyl coenzyme A, histone H4, 10 nM enzyme. (In Alpha technology, singlet oxygen from a donor bead excites a nearby acceptor bead.)

For assay [3], the target named is T2, MOF-KAT8 (Homo sapiens, UniProt Q9H7Z6).
T2 sequence (Q9H7Z6 177-447): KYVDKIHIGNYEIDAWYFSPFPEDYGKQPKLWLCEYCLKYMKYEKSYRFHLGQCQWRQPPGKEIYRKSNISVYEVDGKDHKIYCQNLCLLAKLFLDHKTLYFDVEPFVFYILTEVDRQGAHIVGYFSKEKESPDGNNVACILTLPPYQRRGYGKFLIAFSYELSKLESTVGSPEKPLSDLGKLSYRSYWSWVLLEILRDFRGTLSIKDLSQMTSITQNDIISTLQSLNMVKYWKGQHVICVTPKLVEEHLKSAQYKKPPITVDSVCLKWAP
As to the kind of experiment: Acetyltransferase biochemical assay (AlphaScreen), KAT8. The following applies: Table 4 (MOF-KAT8); 0.4 μM Acetyl coenzyme A, histone H4, 20 nM enzyme.

Assay [4] concerns the target T3, MOZ-KAT6A (Homo sapiens, UniProt Q92794, A567V).
T3 construct: encoding amino acid residues 507 to 778 (Uniprot Q92794-1) of human KAT6A; made in house; host or cells: E. coli BL21 DE3
Put plainly: Acetyltransferase biochemical assay (AlphaScreen), KAT6A. Particulars: Table 2 (MOZ-KAT6A); 10 μM Acetyl coenzyme A, histone H3.1, 5 nM enzyme.

Assay [5] has as its system histone H2A.Z Lysine 7 acetylation (TIP60 mediated) in U2OS cells. As to the kind of experiment: H2A.Z Lysine 7 Acetylation Biomarker Assay (96 well, U2OS). Format: cell-based. Particulars: Table 7, H2A.Z K7ac, 24 hours incubation, serum free medium. How it is done:
To discover a global TIP60/KAT5 cellular biomarker useful for monitoring PD responses of TIP60 inhibition in vitro and in vivo, various histone modifications were assessed for TIP60 dependence through genetic (TIP60 siRNA and CRISPR/Cas9) or TIP60 pharmacological inhibition. This analysis clearly identified acetylation of the histone variant H2A.Z at Lysine 7 (H2A.ZK7ac) as a global histone mark which is TIP60-dependent in both human and mouse cells. To a lesser extent, TIP60 also acetylated lysine 4 and 11 of H2A.Z.
Compounds may be tested for their ability to inhibit the histone H2A.Z Lysine 7 acetylation biomarker (which is TIP60 mediated) in the following assay:
as §1, with “of 9,000” for “of 12,000”, “Example 146)” for “Example 36 in WO2016/198507)”, “at 20” for “at 10”, “TritonX100. Anti-H2A.Z K7ac” for “TritonX100. Anti-H3K14ac”, “antibody (Abcam)” for “antibody (Cell Signalling Technologies)”, “33342 (10 μM,” for “33342 (1 μg/mL,”

For assay [6], the target named is T4, HBO-KAT7 (Homo sapiens, UniProt O95251).
T4 construct: encoding amino acid residues 325 to 611 (Uniprot 095251-1) of human KAT7; made in house; host or cells: E. coli BL21 DE3 RIL
T4 sequence (O95251 with tags, fused parts or gaps): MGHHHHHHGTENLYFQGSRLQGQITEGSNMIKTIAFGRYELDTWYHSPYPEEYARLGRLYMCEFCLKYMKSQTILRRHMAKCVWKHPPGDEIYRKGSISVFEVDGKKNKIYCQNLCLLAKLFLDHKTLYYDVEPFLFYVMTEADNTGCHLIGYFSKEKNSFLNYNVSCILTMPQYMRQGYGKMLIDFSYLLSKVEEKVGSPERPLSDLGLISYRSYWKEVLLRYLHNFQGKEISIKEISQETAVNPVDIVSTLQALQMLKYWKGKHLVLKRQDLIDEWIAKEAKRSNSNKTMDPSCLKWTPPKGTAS
As to the kind of experiment: Acetyltransferase biochemical assay (AlphaScreen), KAT7. Particulars: Table 3 (HBO-KAT7); 0.4 μM Acetyl coenzyme A, histone H3.1, 40 nM enzyme.

Assay [7] has as its target T4, HBO-KAT7. As to the kind of experiment: Revised Acetyltransferase Biochemical Assay, KAT7. Particulars: Table 9 (HBO-KAT7), 1 μM Acetyl coenzyme A.
Assay [8] deals with T1, TIP60-KAT5. As to the kind of experiment: Revised Acetyltransferase Biochemical Assay, KAT5. The following applies: 10 nM KAT5, 1 μM AcCoA, 100 nM histone H4, 90 min.
Assay [9] deals with T3, MOZ-KAT6A. As to the kind of experiment: Revised Acetyltransferase Biochemical Assay, KAT6A. The following applies: Table 8 (MOZ-KAT6A), 1 μM Acetyl coenzyme A.
Assay [10] has as its target T2, MOF-KAT8. Put plainly: Revised Acetyltransferase Biochemical Assay, KAT8.
The target of the next assay is T5, QKF-KAT6B (Homo sapiens, UniProt Q8WYB5).
T5 construct: purchased SignalChem K315-381BG
T5 sequence (Q8WYB5 whole entry): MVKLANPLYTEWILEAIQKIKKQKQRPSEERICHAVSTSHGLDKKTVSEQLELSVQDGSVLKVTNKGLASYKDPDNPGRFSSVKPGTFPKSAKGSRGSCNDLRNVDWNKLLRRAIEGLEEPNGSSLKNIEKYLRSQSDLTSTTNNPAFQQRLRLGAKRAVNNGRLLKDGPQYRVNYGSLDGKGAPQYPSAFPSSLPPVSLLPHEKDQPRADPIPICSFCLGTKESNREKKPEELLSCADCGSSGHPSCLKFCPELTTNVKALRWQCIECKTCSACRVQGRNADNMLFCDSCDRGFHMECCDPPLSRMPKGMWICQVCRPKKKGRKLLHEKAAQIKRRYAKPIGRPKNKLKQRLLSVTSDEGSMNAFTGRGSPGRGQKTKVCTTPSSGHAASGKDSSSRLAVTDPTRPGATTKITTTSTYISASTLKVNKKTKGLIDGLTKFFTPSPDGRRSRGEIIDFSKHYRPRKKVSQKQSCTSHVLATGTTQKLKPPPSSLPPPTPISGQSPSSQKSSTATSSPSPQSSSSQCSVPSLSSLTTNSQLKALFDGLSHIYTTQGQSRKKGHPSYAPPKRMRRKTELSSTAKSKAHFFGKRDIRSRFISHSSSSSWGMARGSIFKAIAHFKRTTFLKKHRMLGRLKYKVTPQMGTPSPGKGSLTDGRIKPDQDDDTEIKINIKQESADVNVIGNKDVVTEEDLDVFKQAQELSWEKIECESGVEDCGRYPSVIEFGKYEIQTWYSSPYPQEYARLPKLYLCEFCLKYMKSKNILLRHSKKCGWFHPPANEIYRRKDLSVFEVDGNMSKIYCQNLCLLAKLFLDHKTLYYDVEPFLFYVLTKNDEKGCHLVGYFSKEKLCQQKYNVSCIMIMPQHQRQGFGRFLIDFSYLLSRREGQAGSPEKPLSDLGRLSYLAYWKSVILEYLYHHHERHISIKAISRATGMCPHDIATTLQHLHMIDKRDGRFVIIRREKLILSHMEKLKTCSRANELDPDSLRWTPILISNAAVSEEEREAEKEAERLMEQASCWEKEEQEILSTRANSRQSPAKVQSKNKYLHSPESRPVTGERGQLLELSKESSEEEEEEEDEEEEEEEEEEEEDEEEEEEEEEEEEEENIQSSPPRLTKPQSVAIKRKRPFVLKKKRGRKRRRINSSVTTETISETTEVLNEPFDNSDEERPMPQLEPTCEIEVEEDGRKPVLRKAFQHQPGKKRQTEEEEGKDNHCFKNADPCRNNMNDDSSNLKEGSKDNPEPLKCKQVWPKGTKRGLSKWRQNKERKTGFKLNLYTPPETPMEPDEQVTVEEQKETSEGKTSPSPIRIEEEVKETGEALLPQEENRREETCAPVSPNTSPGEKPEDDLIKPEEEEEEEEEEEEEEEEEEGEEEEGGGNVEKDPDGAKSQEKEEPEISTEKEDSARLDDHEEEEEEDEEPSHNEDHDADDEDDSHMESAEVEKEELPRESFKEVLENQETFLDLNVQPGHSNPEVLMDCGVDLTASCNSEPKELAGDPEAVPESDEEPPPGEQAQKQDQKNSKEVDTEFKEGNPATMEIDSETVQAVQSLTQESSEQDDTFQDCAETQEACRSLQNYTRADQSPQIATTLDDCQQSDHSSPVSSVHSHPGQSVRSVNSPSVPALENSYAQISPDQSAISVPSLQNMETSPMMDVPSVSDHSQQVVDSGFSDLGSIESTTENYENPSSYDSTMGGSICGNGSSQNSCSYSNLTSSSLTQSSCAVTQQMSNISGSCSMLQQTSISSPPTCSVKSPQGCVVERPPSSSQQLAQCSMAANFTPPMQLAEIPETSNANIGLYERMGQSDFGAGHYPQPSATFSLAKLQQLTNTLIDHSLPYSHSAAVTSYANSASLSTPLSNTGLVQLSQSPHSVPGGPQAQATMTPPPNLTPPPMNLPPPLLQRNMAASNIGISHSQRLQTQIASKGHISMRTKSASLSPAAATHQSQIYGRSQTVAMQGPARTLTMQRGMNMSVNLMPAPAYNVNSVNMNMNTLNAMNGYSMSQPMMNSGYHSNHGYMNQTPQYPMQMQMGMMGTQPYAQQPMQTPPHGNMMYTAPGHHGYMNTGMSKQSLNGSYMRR
As to the kind of experiment: Revised Acetyltransferase Biochemical Assay, KAT6B. Particulars: 8 nM KAT6B, 1 μM AcCoA, 100 nM histone H3.1, 90 min. An excerpt:
KAT6B was obtained from SignalChem, catalog ID: K315-381BG

The subject of assay [11] is histone H3K23 acetylation (KATE mediated) in U2OS cells. Put plainly: Histone H3 Lysine 23 Acetylation Biomarker Assay (U2OS). Format: cell-based. The following applies: 96 well, 24 hours incubation. In a few lines:
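U2OS cells were treated with compound for 24 h, then fixed and immunostained for H3K23ac with Hoechst nuclear counterstain. Per-nucleus Alexa647 intensity was quantified by high-content imaging and converted to % inhibition against DMSO and 10 μM reference-inhibitor controls. IC50 was derived from a four-parameter logistic fit.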

T3 sequence (Q92794 507-778 A567V limits assumed): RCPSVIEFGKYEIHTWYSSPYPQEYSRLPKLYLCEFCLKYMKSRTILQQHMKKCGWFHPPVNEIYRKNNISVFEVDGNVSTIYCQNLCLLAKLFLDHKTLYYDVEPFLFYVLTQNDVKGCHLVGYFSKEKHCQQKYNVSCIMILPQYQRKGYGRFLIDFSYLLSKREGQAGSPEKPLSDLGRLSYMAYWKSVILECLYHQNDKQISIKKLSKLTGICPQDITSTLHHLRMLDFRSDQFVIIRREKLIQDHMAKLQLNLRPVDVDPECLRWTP
T1 sequence (Q92993 2-461 isoform Q92993-2): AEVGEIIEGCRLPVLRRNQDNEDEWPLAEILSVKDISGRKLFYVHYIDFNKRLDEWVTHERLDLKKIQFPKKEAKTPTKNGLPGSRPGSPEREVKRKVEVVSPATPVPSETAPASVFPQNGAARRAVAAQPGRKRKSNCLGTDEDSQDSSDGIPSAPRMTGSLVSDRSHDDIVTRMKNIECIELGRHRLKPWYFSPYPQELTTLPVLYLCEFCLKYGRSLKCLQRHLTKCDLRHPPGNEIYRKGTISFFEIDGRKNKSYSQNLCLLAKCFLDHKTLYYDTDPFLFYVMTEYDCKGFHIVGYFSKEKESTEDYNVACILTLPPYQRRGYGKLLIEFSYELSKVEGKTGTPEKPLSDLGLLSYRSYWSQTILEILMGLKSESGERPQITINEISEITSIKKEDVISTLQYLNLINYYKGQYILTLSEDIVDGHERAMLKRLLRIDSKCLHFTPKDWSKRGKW

In the case of `O=C(NCC(c1ccccc1)c1ncco1)C1=Nc2ccccc2S(=O)(=O)N1` (single isomer, unassigned) [Example 137], the IC50 in assay [1] stood at 2450 nM; against TIP60-KAT5 [2], 3080 nM; at MOF-KAT8 [3], 100000 nM; against MOZ-KAT6A [4], 107 nM; in assay [5] (Homo sapiens), 10000 nM; against HBO-KAT7 [6], 913 nM.
Take `O=C(NCC(c1ccccc1)c1ncco1)C1=Nc2ccc(Br)cc2S(=O)(=O)N1` (single isomer, unassigned) [Example 138]: the IC50 in assay [1] turned out to be 145 nM; against TIP60-KAT5 [2], 95.2 nM; at MOF-KAT8 [3], 8070 nM; in assay [5], 1460 nM; against HBO-KAT7 [6], 234 nM.
As for `O=C(NCC(c1ccccc1)c1ncco1)C1=Nc2ccc(Br)cc2S(=O)(=O)N1` (single isomer, unassigned) [Example 139], the IC50 is 263 nM in assay [1]; 1300 nM at TIP60-KAT5 [2]; 19100 nM at MOF-KAT8 [3]; 464 nM at MOZ-KAT6A [4]; 184 nM against HBO-KAT7 [7]; 707 nM against TIP60-KAT5 [8]. Also, the IC50 on MOZ-KAT6A [9] was determined as 100 nM; in assay [5] it was 5050 nM; on HBO-KAT7 [6], 61.5 nM; on MOF-KAT8 [10] (read-out: IC50 (MOF-KAT8), Revised acetyltransferase biochemical assay, 20 nM KAT8, 1 μM AcCoA, 100 nM histone H4, 90 min), 75800 nM.
For `O=C(NCC(c1ccccc1)c1ncco1)C1=Nc2ccc(I)cc2S(=O)(=O)N1` (single isomer, unassigned) [Example 146, 7-iodo-N-(2-(oxazol-2-yl)-2-phenylethyl)-2H-benzo[e][1,2,4]thiadiazine-3-carboxamide 1,1-dioxide], the IC50 against QKF-KAT6B worked out at 19 nM; in [1], 429 nM; at TIP60-KAT5 [2], 46.8 nM; against MOZ-KAT6A [4], 25.9 nM; on HBO-KAT7 [7] it was 36 nM; on TIP60-KAT5 [8] it was 13 nM. In addition, the IC50 in assay [11] is 16 nM; on MOZ-KAT6A [9] it was 2 nM; in [5], 447 nM; against HBO-KAT7 [6] it was 160 nM.
Consider `O=C(NCC(c1ccccc1)c1ncco1)C1=Nc2ccc(I)cc2S(=O)(=O)N1` (single isomer, unassigned) [Example 147], for which the IC50 at QKF-KAT6B is 311 nM; in [1], 193 nM; on TIP60-KAT5 [2], 445 nM; against MOZ-KAT6A [4], 645 nM; against HBO-KAT7 [7], 57 nM; on TIP60-KAT5 [8], 132 nM. Moreover, the IC50 in assay [11] is 482 nM; on MOZ-KAT6A [9] it was 29 nM; in assay [5], 1430 nM; on HBO-KAT7 [6], 167 nM.
Consider `COC(=O)c1ccccc1CCNC(=O)C1=Nc2ccc(I)cc2S(=O)(=O)N1` [Example 12, Methyl 2-(2-(7-iodo-1,1-dioxido-2H-benzo[e][1,2,4]thiadiazine-3-carboxamido)ethyl)benzoate], for which the IC50 at TIP60-KAT5 [2] was determined as 2620 nM; in assay [5] (Homo sapiens), 26800 nM; on HBO-KAT7 [6], 5870 nM.
`O=C(NCCc1ccccc1-c1ncco1)C1=Nc2ccc(I)cc2S(=O)(=O)N1` [Example 13, 7-Iodo-N-(2-(oxazol-2-yl)phenethyl)-2H-benzo[e][1,2,4]thiadiazine-3-carboxamide 1,1-dioxide]: the IC50 at TIP60-KAT5 [2] is 727 nM; at MOZ-KAT6A [4], 229 nM; at HBO-KAT7 [7], 128 nM; at TIP60-KAT5 [8] it was 111 nM; against MOZ-KAT6A [9] it was 10 nM; in assay [5] (Homo sapiens), 5780 nM. For the same compound, the results for the IC50 on HBO-KAT7 [6] and against MOF-KAT8 [10] were 981 nM and 36400 nM, respectively.
Take `O=C(NCC(c1ccccc1)c1ncco1)C1=Nc2ccc(I)cc2S(=O)(=O)N1` (stereo not shown) [Example 41, 7-iodo-N-(2-(oxazol-2-yl)-2-phenylethyl)-2H-benzo[e][1,2,4]thiadiazine-3-carboxamide 1,1-dioxide]: the IC50 on QKF-KAT6B came to 28 nM; in assay [1] (Homo sapiens, 24 h) it was 86.1 nM; against TIP60-KAT5 [2], 61.3 nM; on MOZ-KAT6A [4] it was 17.9 nM; against HBO-KAT7 [7], 59 nM; against TIP60-KAT5 [8], 32 nM. For the same compound, the IC50 in assay [11] (Homo sapiens, U2OS, 24 h) came to 35 nM; against MOZ-KAT6A [9], 5 nM; in assay [5] (Homo sapiens, 24 h), 1000 nM; against HBO-KAT7 [6], 94.4 nM.
Turning to `COc1cccc(CCNC(=O)C2=Nc3ccc(I)cc3S(=O)(=O)N2)c1` [Example 101], the IC50 is 30000 nM in assay [1] (Homo sapiens, 24 h); greater than 125000 nM on TIP60-KAT5 [2]; 10200 nM against MOZ-KAT6A [4]; 30000 nM in assay [5] (Homo sapiens); greater than 125000 nM against HBO-KAT7 [6].
As for `O=C(NCC(O)c1cccc(OCc2ccccc2)c1)C1=Nc2ccc(I)cc2S(=O)(=O)N1` (stereo not shown) [Example 122], the IC50 is greater than 125000 nM on TIP60-KAT5 [2], 10000 nM in assay [5] (Homo sapiens) and greater than 125000 nM on HBO-KAT7 [6].
